Measured values as given in patent publication US20030070184A1, “LIGANDS FOR DISCOIDIN DOMAIN RECEPTOR TYROSINE KINASES AND COMPLEXES THEREOF” (priority 1999, published 2003).
One block for each molecule: values may come before it. Where a SMILES comes first, the peptide text is derived from it. [ ]: non-standard residue; d: D form. pY = N[C@@H](Cc1ccc(OP(=O)(O)O)cc1)C(=O)O

What was measured:
[1] = molecular target: T1, Shc PTB domain (Homo sapiens, UniProt P29353); assay: Surface plasmon resonance competition: GST-Shc PTB domain binding to immobilized middle T antigen phosphopeptide; settings: BIAcore, soluble competing phosphopeptide; read-out: IC50, inhibition of binding of the Shc PTB domain to the middle T antigen phosphopeptide
T1 construct: the PTB domain fusion construct comprises amino acids 1-225 of human p52 Shc; made in house; host or cells: E. coli
T1 sequence (P29353 1-225 isoform P29353-2): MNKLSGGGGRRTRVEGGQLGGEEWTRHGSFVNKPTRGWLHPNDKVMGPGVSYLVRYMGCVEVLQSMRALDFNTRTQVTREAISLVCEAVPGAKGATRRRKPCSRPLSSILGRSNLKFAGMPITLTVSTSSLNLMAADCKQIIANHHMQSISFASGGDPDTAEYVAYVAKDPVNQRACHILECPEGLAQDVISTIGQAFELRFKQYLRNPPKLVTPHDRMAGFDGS
Method: Surface plasmon resonance—experiments were done with a BIAcore instrument (Pharmacia). A phosphopeptide corresponding to the NPXY sequence in the polyomavirus middle T antigen (mT) (LSLLSNPTpYSVNSK) was absorbed to the surface of a biosensor chip. Binding of soluble GST-Shc PTB domain fusion protein to the mT peptide was measured in the presence or absence of competing soluble phosphopeptides based on the sequences around Tyr 513 of DDR1b or Tyr 490 of the NGFR (HIIENPQpYFSD) (21).
Experiments were done with a BIAcore instrument (Pharmacia). A phosphopeptide corresponding to the NPXY sequence in the polyomavirus middle T antigen (LSLLSNPTpYSVMRSK) was absorbed to the surface of a biosensor chip. Binding of soluble GST-Shc PTB domain fusion protein to the middle T peptide was measured in presence or absence of competing soluble phosphopeptides based on the sequences around tyrosine 513 of DDR1b (ALLLSNPApYRLLLA) or tyrosine 490 of the NGF receptor (HIIENPQpYFSD).

[2] = molecular target: T2, Shc PTB domain binding to DDR1b (Homo sapiens, UniProt P29353); assay: GST-Shc PTB pull-down of tyrosine phosphorylated DDR1b from 293 lysates, competition by phosphopeptide; settings: lysates of transfected, orthovanadate-treated 293 cells
T2 construct: the PTB domain fusion construct comprises amino acids 1-225 of human p52 Shc; made in house; host or cells: GST-Shc PTB: E. coli; DDR1b: lysate of transiently transfected, orthovanadate-treated 293 cells
T2 sequence (P29353 1-225 isoform P29353-2): T1 sequence (P29353 1-225 isoform P29353-2)
Method: The results presented above raise the possibility that the Shc PTB domain binds to phosphorylated Tyr 513, which lies within the motif LLSNPAY in the DDR1b juxtamembrane insert. To test whether phosphorylation of Tyr 513 might form a PTB-binding site, a 14-mer phosphopeptide with the sequence ALLLSNPApYRLLLA was synthesized, corresponding to residues 505-518 of DDR1b. The ability of this phosphopeptide to bind the Shc PTB domain was analysed using a competition assay, in which the capacity of GST-Shc PTB fusion protein to bind tyrosine phosphorylated DDR1b from lysates of transfected 293 cells was measured in the presence of increasing amounts of the Tyr 513 phosphopeptide. […] To quantitate this interaction more precisely, surface plasmon resonance technology was used, in which soluble DDR1b phosphopeptide was employed to inhibit binding of the GST-Shc PTB fusion protein to a polyomavirus middle T antigen phosphopeptide, immobilized on a biosensor chip (21).
FIGS. 2A and 2B. Phosphorylation of Tyr 513 in the MCK10b (DDR1b) juxtamembrane insert forms a Shc PTB-binding site. […] Bound protein was detected by immunoblotting with antibodies to MCK10. […]

[3] = test system: MMP-1; assay: MMP-1 expression in HT 1080 cells (Western blot of conditioned media); assay type: cell-based, human; settings: collagen type I 10 μg/ml, or TPA
Method: The full length cDNA of DDR2 was stabilely expressed in HT 1080 cells using a retroviral expression construct (pLXSN). Neomycin resistant clones were tested for DDR2 expression. Parental and DDR2 overexpressing cells were cultivated in serum free medium and stimulated with 10 μg/ml collagen type I for various periods of time. The conditioned medium was 20-fold concentrated and analyzed for the presence of MMP-1 by Western blotting with the monoclonal antibody 41-IE5 (Oncogene Research Products; Cambridge, Mass.).

[4] = molecular target: T3, DDR1b (Homo sapiens, UniProt Q08345); assay: Tyrosine phosphorylation of endogenous DDR1b in carcinoma cells (T-47D; A431), immunoprecipitation and anti-phosphotyrosine blot; assay type: cell-based; settings: PDGF or EGF 5 min, collagen type I overnight
T3 construct: endogenous in cells; host or cells: T-47D human mammary carcinoma cells (A431 also named)
Description: To investigate the effects of collagen on cells that express endogenous DDR tyrosine kinases, the mammary carcinoma cell line T-47D was employed. Previous results have shown that DDR1 is highly expressed in human carcinoma cell lines, in particular, the breast cancer cell lines BT-20, MDA-MB-175 and T-47D (1) (Perez et al., 1996). […] The time course of endogenous DDR1b tyrosine phosphorylation in T-47D cells was even slower than in 293 cells, with maximal activation being achieved only after stimulation for 18 hours.
To further investigate the role of different types of collagen in the activation of DDR1 and DDR2, collagen types I, II, III and V purified from human placenta and collagen type II from bovine tracheal cartilage were obtained. To test their ability to induce receptor tyrosine phosphorylation, 293 cells overexpressing DDR1 or DDR2 were employed. […] The various types of collagen were also tested for their ability to stimulate tyrosine phosphorylation of endogenous DDR1b present in T-47D cells. For this purpose, DDR1b was immunoprecipitated from lysates of stimulated T-47D cells and analyzed by Western blotting with anti-phosphotyrosine antibodies. […] As previously shown, DDR1 tyrosine phosphorylation could also be activated by treating cells with 1 mM orthovanadate, an inhibitor of tyrosine phosphatases. Furthermore, gelatin which contains heat denatured collagen was tested for its capacity to induce DDR1b tyrosine phosphorylation.
Integrins of the type α1β1 and α2β1 have long been known to be receptors for collagen. Therefore, tests were conducted to determine if these integrins are somehow involved in the activation of DDR1b. The mammary carcinoma cell line T-47D, which endogenously expresses the b-isoform of DDR1, was used. Monoclonal antibodies directed against the extracellular domains of integrins can block binding to collagen and therefore signaling of integrins. T-47D cells were treated with antibody A2-IIE10 against α2-integrin and antibody DE9 against β1-integrin (both from Upstate Biotechnology) in the absence or presence of 10 μg/ml collagen type I overnight. DDR1b or Shc were immunoprecipitated from cellular lysates and analyzed by Western blotting with antiphosphotyrosine antibody.
DDR1b and DDR2 were transfected into 293 cells and were stimulated with 10 µg/ml mouse collagen type I for different periods of time. (FIG. 9A and FIG. 9B) Total cellular lysates were probed with antiphosphotyrosine antibody. Maximal activation is seen 90 min after stimulation of DDR1b (FIG. 9A) and DDR2 (FIG. 9B). (FIG. 9C) Human mammary carcinoma T-47D cells were cultivated on 10 cm dishes to confluence and starved in 0.5% serum overnight. Cells were stimulated with collagen type I for various periods of time and lysed. DDR1b was immunoprecipitated from the lysates and analyzed by Western blotting with antiphosphotyrosine antibody. Maximal phosphorylation of DDR1b is seen after stimulation for 18 h. An unidentified, tyrosine phosphorylated protein with an apparent molecular weight of 115 kDa is copurified in the immunoprecipitations. […] Prolonged stimulation with collagen increases the processing of DDR1b in T-47D cells, indicated by an additional 62 kDa band. (FIGS. 9E and 9F) DDR1b was immunoprecipitated from overexpressing 293 cells (E) and T-47D (FIG. 9F) cells and subjected to an in vitro kinase reaction. The incorporation of [^32P]-phosphate is monitored by SDS-PAGE followed by autoradiograpy.

[5] = test system: MAPK; assay: MAPK activation (mobility shift) in T-47D or HT 1080-DDR2 cells; assay type: cell-based, human; settings: T-47D or HT 1080 overexpressing DDR2; PDGF or EGF 5 min, collagen type I overnight
Method: T-47D or HT 1080 overexpressing DDR2 cells were stimulated with PDGF or EGF for 5 min, with collagen type I overnight and with a combination of EGF/collagen or PDGF/collagen. […] Furthermore, activation of MAPK by EGF is not influenced by simultaneous activation of DDR receptors.

T3 sequence (Q08345 19-913): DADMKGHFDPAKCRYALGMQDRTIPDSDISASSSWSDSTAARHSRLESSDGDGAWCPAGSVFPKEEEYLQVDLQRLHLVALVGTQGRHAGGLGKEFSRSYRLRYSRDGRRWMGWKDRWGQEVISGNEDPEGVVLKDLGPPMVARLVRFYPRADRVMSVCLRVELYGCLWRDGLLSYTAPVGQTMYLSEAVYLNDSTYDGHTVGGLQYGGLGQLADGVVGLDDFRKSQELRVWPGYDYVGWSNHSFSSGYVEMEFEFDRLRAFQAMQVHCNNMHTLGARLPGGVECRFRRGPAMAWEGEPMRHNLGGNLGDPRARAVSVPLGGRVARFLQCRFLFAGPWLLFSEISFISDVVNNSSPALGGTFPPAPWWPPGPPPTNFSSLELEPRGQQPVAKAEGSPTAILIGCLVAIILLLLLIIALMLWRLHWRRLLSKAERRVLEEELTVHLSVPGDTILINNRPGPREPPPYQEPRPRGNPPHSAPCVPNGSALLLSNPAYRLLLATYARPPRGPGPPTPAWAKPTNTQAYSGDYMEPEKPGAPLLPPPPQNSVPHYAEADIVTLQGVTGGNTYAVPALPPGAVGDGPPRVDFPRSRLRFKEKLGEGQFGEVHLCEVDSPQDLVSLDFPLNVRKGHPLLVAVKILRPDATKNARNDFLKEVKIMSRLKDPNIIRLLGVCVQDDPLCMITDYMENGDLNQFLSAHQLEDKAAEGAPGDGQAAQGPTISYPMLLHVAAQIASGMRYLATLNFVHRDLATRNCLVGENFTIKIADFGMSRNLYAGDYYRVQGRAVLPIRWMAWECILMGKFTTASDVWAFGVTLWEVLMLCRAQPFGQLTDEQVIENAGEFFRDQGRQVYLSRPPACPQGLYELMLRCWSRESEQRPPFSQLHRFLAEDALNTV

IC50 [1]: ~800 nM
phosphopeptide concentration for full inhibition of Shc PTB binding to DDR1b [2]: 2 µM
phosphopeptide concentration that inhibited binding of the Shc PTB domain to DDR1b [2]: 100 nM
Molecule: CC(C)C[C@H](NC(=O)[C@H](C)N)C(=O)N[C@@H](CC(C)C)C(=O)N[C@@H](CC(C)C)C(=O)N[C@@H](CO)C(=O)N[C@@H](CC(N)=O)C(=O)N1CCC[C@H]1C(=O)N[C@@H](C)C(=O)N[C@@H](Cc1ccc(OP(=O)(O)O)cc1)C(=O)N[C@@H](CCCNC(=N)N)C(=O)N[C@@H](CC(C)C)C(=O)N[C@@H](CC(C)C)C(=O)N[C@@H](CC(C)C)C(=O)N[C@@H](C)C(=O)O [DDR1b phosphopeptide, ALLLSNPApYRLLLA] (H-ALLLSNPA[pY]RLLLA-OH; N-terminus and C-terminus assumed)

Molecule: CCCCCCCCCCCCCC(=O)O[C@@H]1[C@@H](C)[C@@]2(O)[C@@H](C=C(CO)C[C@]3(O)C(=O)C(C)=C[C@@H]23)[C@@H]2C(C)(C)[C@]12OC(C)=O [TPA, phorbol 12-myristate 13-acetate]
expression of MMP-1 in HT 1080 cells overexpressing DDR2 ([3]; 4 days): induced
expression of MMP-1 in parental HT 1080 cells [3]: induced

activation of DDR1b in T-47D cells [4]: not
Molecule: PDGF [reference compound]
MAPK activation [5]: not
